Reference: article PMC5620277, “The histone methyltransferase EZH2 as a druggable target in SHH medulloblastoma cancer stem cells” (Oncotarget, 2017)

Legend:
mMB-SLCs [1] = experiment: Western Blot of H3K27me3, PCNA, cleaved caspase 3 in mMB-SLCs; format: cell-based, mouse; settings: mMB-SLCs, 5 μM, 48 h
Protocol: Afterwards, we tested the ability of MC3629 (at 0.5, 5, and 25 μM) to inhibit the EZH2 enzymatic activity on a cell-based assay in vitro. The lower significant MC3629 dosage to decrease the H3K27me3 level in MB-SLCs was 5 μM (Figure 2C).
(§1) To evaluate cell viability cells were plated at a density of 5×10^3 cells/well in 96-well plates and were incubated with MTS solution (CellTiter 96® AQueous One Solution Promega).
(§2) Western blots were performed according to standard procedures. Briefly, protein lysates were prepared using RIPA buffer with fresh protease inhibitors. Lysates were separated on SDS polyacrylamide gels. Proteins were transferred on nitrocellulose membrane (0.45 micron) (PerkinElmer). Membranes were blocked for 1 h at room temperature in 5% nonfat dry milk and incubated overnight at 4°C with antibodies against EZH2 (4905S Cell signaling), H3K27me3 (07-449 Millipore), PCNA (2586 Cell signaling), ACTIN (I-19 sc-1616; Santa Cruz Biotechnology), GAPDH (ab9484, Abcam), cleaved CSP-3 (D-175 9661S; Cell Signaling) and H3 (ab1971, Abcam). HRP-conjugated secondary antibodies (Santa Cruz Biotechnology) were used in combination with enhanced chemiluminescence (ECL Amersham).

hMB-SLCs [2] = experiment: Western Blot of H3K27me3, PCNA, cleaved caspase 3 in hMB-SLCs; format: cell-based, human; settings: 5 μM, 48 h
Protocol: as §1, §2

mMB-SLCs [3] = experiment: Self-renewal, clonogenic assay, mMB-SLCs; format: cell-based, mouse; settings: 5 μM
Protocol: (§3) For self-renewal assessment, clonogenic assay was performed as previously described. Briefly: oncospheres were disaggregated with non-enzymatic cell dissociation buffer (Sigma) and cells were plated at clonal density (1-2 cells/mm^2) into 96-well plates and cultured for an appropriate number of days (7-15) until oncospheres were countable.

hMB-SLCs [4] = experiment: Self-renewal, clonogenic assay, hMB-SLCs; format: cell-based, human; settings: 5 μM
Protocol: as §3

DAOY cells = experiment: Western Blot of H3K27me3 and PCNA in DAOY cells; format: cell-based; settings: 5 μM, 48 h
Protocol: as §1, §2

DAOY-SLCs [5] = experiment: Western Blot of H3K27me3 and PCNA in DAOY-SLCs; format: cell-based; settings: 5 μM, 48 h
Protocol: as §1, §2

DAOY-SLCs [6] = experiment: Cell viability, MTS assay, DAOY-SLCs; format: cell-based; settings: 5 μM, after 72 h
Protocol: as §1

[7] = PAMPA-BBB (porcine brain lipid extract artificial membrane); format: in vitro ADME; settings: for Papp at 24 h: Pe in cm/s, pH 7.4, 24 h, room temperature, triplicate, read-out: Log Pe (converted)
Protocol: Donor solution (500 μM or 250 μM) was prepared by diluting 10 or 5 mM DMSO compound stock solution using phosphate buffer (pH 7.4, 0.01 M). Filter membrane was coated with 5 μl of BBB-specific lipid solution prepared dissolving 16 mg of PBL (Avanti Lipids Polar, 141101P) in 600 μl of n-dodecane. Donor solution (150 μl) was added to each well of the filter plate. To each well of the acceptor plate 300 μl of solution (5% DMSO in phosphate buffer) were added. Each compound was tested in triplicate. The sandwich was incubated for 24 h at room temperature under gentle shaking. After the incubation time, the sandwich plates were separated and 250 μl of the acceptor plate were transferred to a UV quartz microtiter plate and measured by UV spectroscopy, using a Multiskan GO microplate spectrophotometer (Thermo Scientific) at 250−500 nm at step of 5 nm. Reference solutions (250 μl) were prepared diluting the sample stock solutions to the same concentration as that with no membrane barrier. The BBB permeability value Log Pe is determined applying the equation:
log Pe= log{C⋅(−ln(1−[drug]acceptor/[drug]equilibrium))},
where C=(VD⋅VA/(VD+VA)area⋅time)
In this equation, VA is the volume of the acceptor compartment (0.3 cm^3), VD is the donor volume (0.15 cm^3), area is the accessible filter area (0.24 cm^2), and time is the incubation time in seconds.

| Papp at 24 h [7] | Δ Log Pe ([7]; respect to propranolol) | Compound | H3K27me3 and PCNA protein levels (mMB-SLCs [1]) | H3K27me3 and PCNA protein levels (hMB-SLCs [2]) | self-renewal (mMB-SLCs [3]) | self-renewal (hMB-SLCs [4]) | H3K27me3 and PCNA levels (DAOY cells) | H3K27me3 and PCNA levels (DAOY-SLCs [5]) | cell viability (DAOY-SLCs [6]) |
| --- | --- | --- | --- | --- | --- | --- | --- | --- | --- |
| 3.89 ×10⁻⁶ cm/s | −0.20 | CC[C@H](C)n1cc(C)c2c(C(=O)NCc3c(C)cc(C)[nH]c3=O)cc(-c3ccc(N4CCNCC4)nc3)cc21 [GSK2816126, reference compound] | significantly impaired | significantly impaired | significantly reduced | significantly reduced | impaired only by MC3629 | down modulated | significantly impair |
| 6.17 ×10⁻⁶ cm/s |  | CC(C)NCC(O)COc1cccc2ccccc12 (stereo not shown) [propranolol] |  |  |  |  |  |  |  |
